Assay results published in PMC11024869, “The activity of antimicrobial peptoids against multidrug-resistant ocular pathogens” (Contact lens & anterior eye : the journal of the British …, 2024).
≈ marks a conversion by molar mass, not a printed value. Non-standard residues stand in square brackets, D forms with d. Residues, ends and D or L forms follow the SMILES beside them. Nspe = C[C@H](NCC(=O)O)c1ccccc1; NDecylGly = CCCCCCCCCCNCC(=O)O; Nlys = NCCCCNCC(=O)O

Experiments:
Assay type in all cases: cell-based
[1] = tested on: Streptococcus pneumoniae SP04; settings: SP04, MHB, 24 h 37 °C
From the text: (§3) The S. pneumoniae strains used were SP04, SP06 and SP07 [46] and Streptococcus gallolyticus SV06 (all isolated from eyes of contact lens wearers during adverse events); P. aeruginosa PAO1 (which was originally isolated from a wound, and is an invasive strain containing the gene exoS) as well as isolates from microbial keratitis, PA 235 (invasive strain containing exoS), PA216 (a cytotoxic strain containing exoU), PA219 (cytotoxic strain containing exoU), PA 233 (cytotoxic strain containing exoU), with various susceptibilities to antibiotics were also used [14]. C. albicans ATCC 10231, a yeast, isolated from case of a human bronchomycosis, was also evaluated.
(§4) The peptoids’ minimum inhibitory and bactericidal concentrations (MIC and MBC) were determined using micro broth dilution methods as previously described with slight modifications, [26, 39, 49, 50], and without using acetic acid and bovine serum albumin [39]. Briefly, bacteria or yeast were suspended in Muller Hinton broth (MHB, Oxoid, Thermo Fisher Scientific, Thebarton, SA, Australia) at 0.1 OD660nm, which was equivalent to 1x10^8 colony forming units (CFU) mL^−1. This suspension was further diluted to achieve 5x10^6 CFU mL^−1. The peptoids were diluted in MHB from 250 to 0.24 μg mL^−1 in 96-well polystyrene microplates (COSTAR, Corning Incorporated, New York, NY, USA) [39]. […] This was followed by addition of 100 μL of each microbial suspensions. Wells with only bacteria or the yeast were treated as a negative control, and wells with only MHB medium were treated as a blank. The plates were incubated at 37 °C with shaking at 120 rpm for 24 h. After incubation, the media in each well was serially diluted in phosphate buffered solution and then inoculated onto tryptone soya agar (Oxoid) plates for bacteria, or Sabouraud’s dextrose agar for the yeast, and incubated at 37 °C for 18 hrs. Post incubation, the number of CFUs on the agar plates was counted.

[2] = tested on: Staphylococcus aureus SA113; settings: SA113, MHB, 24 h 37 °C
From the text: as §3, §4

human erythrocytes = experiment: In vitro assay for hemolysis, human blood
Procedure: (§1) Hemolysis caused by the peptoids was measured using 18 to 20 mL of a horse or human blood collected in EDTA-coated tubes which has been centrifuged at 500×g for 5 min. The supernatant was discarded and the pellet containing the cells were resuspended in PBS to a final volume of 20 mL. This step was repeated five times. After the final wash, the pellet was resuspended in PBS at the ratio of 1:10 (1 mL red blood cell: 9 mL PBS) to yield a final red blood cell (RBC) concentration of approximately 5 × 10^8 cells mL^−1. The concentration of RBCs was confirmed using a hemocytometer. The peptoids (stock concentration 2 mM) were diluted sequentially (two-fold dilutions) in PBS to final concentrations of […]. All the dilutions were subsequently mixed with the RBC suspension at the ratio of 1:1. MilliQ water was used as a positive control and PBS was used as a negative control in this assay. All samples were incubated at 37 °C for 3 h. Following incubation, the tubes were centrifuged at 500 x g for five mins, the supernatants were collected, transferred to wells in a 96 well plate and their optical density was measured at 540 nm. The percentage of hemolysis was calculated by dividing the absorbance of the test sample by the absorbance of the positive control, and multiplying by 100. Data are presented as the hemolysis caused by each dilution of peptoid, and as the concentration of peptoid that caused 10 % or 50 % lysis of red blood cells.
(§2) The geometric mean is the nth root of the multiplied numbers, where n is the total number of data values. A similar formula was used to calculate the selectivity ratio, but by using the concentration of peptoid that caused 10 % hemolysis.

horse erythrocytes = experiment: In vitro assay for hemolysis, horse blood
Procedure: as §1, §2

[3] = tested on: Streptococcus pneumoniae SP07; settings: SP07, MHB, 24 h 37 °C
From the text: as §3, §4

[4] = tested on: Pseudomonas aeruginosa PAO1; settings: PAO1, MHB
From the text: as §3, §4

[5] = tested on: Pseudomonas aeruginosa PA216; settings: PA216, MHB, 24 h 37 °C
From the text: as §3, §4

[6] = tested on: Staphylococcus aureus SA117; settings: SA117, MHB, 24 h 37 °C
From the text: as §3, §4

[7] = tested on: viridans group streptococcus SV06; settings: SV06, MHB, 24 h 37 °C
From the text: as §3, §4

[8] = tested on: Staphylococcus aureus SA65; settings: SA65, MHB, 24 h 37 °C
From the text: as §3, §4

[9] = tested on: Candida albicans ATCC 10231; experiment: MIC/MBC (fungicidal) micro broth dilution; settings: ATCC 10231 (yeast), MHB, 24 h 37 °C
From the text: as §3, §4

[10] = tested on: Staphylococcus aureus SA114; settings: SA114, MHB, 24 h 37 °C
From the text: as §3, §4

[11] = tested on: Pseudomonas aeruginosa PA235; settings: PA235, MHB, 24 h 37 °C
From the text: as §3, §4

[12] = tested on: Pseudomonas aeruginosa PA219; settings: PA219, MHB, 24 h 37 °C
From the text: as §3, §4

tested bacteria = experiment: Geometric mean of MIC of the tested bacteria; settings: nth root of the multiplied MICs of the tested bacteria
From the text: as §2

[13] = tested on: Staphylococcus aureus SA34; settings: SA34, MHB, 24 h 37 °C
From the text: as §3, §4

[14] = tested on: Pseudomonas aeruginosa PA233; settings: PA233, MHB, 24 h 37 °C
From the text: All S. aureus strains used were isolated from cases of microbial keratitis (Table 1) with various susceptibilities to antibiotics. The S. pneumoniae strains used were SP04, SP06 and SP07 [46] and Streptococcus gallolyticus SV06 (all isolated from eyes of contact lens wearers during adverse events); P. aeruginosa PAO1 (which was originally isolated from a wound, and is an invasive strain containing the gene exoS) as well as isolates from microbial keratitis, PA 235 (invasive strain containing exoS), PA216 (a cytotoxic strain containing exoU), PA219 (cytotoxic strain containing exoU), PA 233 (cytotoxic strain containing exoU), with various susceptibilities to antibiotics were also used. C. albicans ATCC 10231, a yeast, isolated from case of a human bronchomycosis, was also evaluated.
The peptoids’ minimum inhibitory and bactericidal concentrations (MIC and MBC) were determined using micro broth dilution methods as previously described with slight modifications, [26, 39, 49, 50], and without using acetic acid and bovine serum albumin [39]. Briefly, bacteria or yeast were suspended in Muller Hinton broth (MHB, Oxoid, Thermo Fisher Scientific, Thebarton, SA, Australia) at 0.1 OD660nm, which was equivalent to 1x10^8 colony forming units (CFU) mL^−1. This suspension was further diluted to achieve 5x10^6 CFU mL^−1. The peptoids were diluted in MHB from 250 to 0.24 μg mL^−1 in 96-well polystyrene microplates (COSTAR, Corning Incorporated, New York, NY, USA). This range was selected to cover the range of MIC values previously reported for ESKAPE pathogens. This was followed by addition of 100 μL of each microbial suspensions. Wells with only bacteria or the yeast were treated as a negative control, and wells with only MHB medium were treated as a blank. The plates were incubated at 37 °C with shaking at 120 rpm for 24 h. After incubation, the media in each well was serially diluted in phosphate buffered solution and then inoculated onto tryptone soya agar (Oxoid) plates for bacteria, or Sabouraud’s dextrose agar for the yeast, and incubated at 37 °C for 18 hrs. Post incubation, the number of CFUs on the agar plates was counted.

[15] = tested on: Streptococcus pneumoniae SP06; settings: SP06, MHB, 24 h 37 °C
From the text: as §3, §4

[16] = tested on: Streptococcus gallolyticus SG04; settings: SG04, MHB, 24 h 37 °C
From the text: as §3, §4

`CCCCCCCCCCNCC(=O)N(CCCCN)CC(=O)N(CC(=O)N(CC(=O)N(CCCCN)CC(=O)N(CC(=O)N(CC(=O)N(CCCCN)CC(N)=O)[C@@H](C)c1ccccc1)[C@@H](C)c1ccccc1)[C@@H](C)c1ccccc1)[C@@H](C)c1ccccc1` [TM18] (H-[NDecylGly][Nlys][Nspe][Nspe][Nlys][Nspe][Nspe][Nlys]-NH2) was tested, and the MIC ([1]; ≥90 % reduction in CFUs) was 15(12)/15(12) μg mL^−1, the MBC ([1]; ≥99.99 % reduction in CFUs) was 15(12)/15(12) μg mL^−1 and the MIC ([2]; ≥90 % reduction in CFUs) was 1.9 µg/mL (≈ 1.53 µM). The MBC ([2]; ≥99.99 % reduction in CFUs) was 1.95 µg/mL (≈ 1.57 µM), the “Human HC10” value (human erythrocytes; concentration causing 10 % lysis of human red blood cells, PBS, 3 h 37 °C, OD 540 nm) was 5 µM and the “Human HC50” value (human erythrocytes; concentration causing 50 % lysis of human red blood cells, PBS, 3 h 37 °C, OD 540 nm) was 225 µM. For the same compound, the “SR human blood (ratio HC10 to geometric mean MIC)” value (human erythrocytes; selectivity ratio) was 1, the “TI human blood (ratio HC50 to geometric mean MIC)” value (human erythrocytes; therapeutic index) was 45 and the “Horse HC10” value (horse erythrocytes; concentration causing 10 % lysis of horse red blood cells, PBS, 3 h 37 °C, OD 540 nm) was 3 µM. The “Horse HC50” value (horse erythrocytes; concentration causing 50 % lysis of horse red blood cells, PBS, 3 h 37 °C, OD 540 nm) was 110 µM, the “SR horse blood (ratio HC10 to geometric mean MIC)” value (horse erythrocytes; selectivity ratio) was 0.6 and the “TI horse blood (ratio HC50 to geometric mean MIC)” value (horse erythrocytes; therapeutic index) was 22. For the same compound, the MIC ([3]; ≥90 % reduction in CFUs) was 15(12)/15(12) μg mL^−1, the MBC ([3]; ≥99.99 % reduction in CFUs) was 15(12)/15(12) μg mL^−1 and the MIC ([4]; 5x10^6 CFU mL^−1, 24 h 37 °C, ≥90 % reduction in CFUs) was 15 µg/mL (≈ 12.1 µM). For the same compound, the MBC ([4]; 24 h 37 °C, ≥99.99 % reduction in CFUs) was 31 µg/mL (≈ 24.9 µM), the MIC ([5]; ≥90 % reduction in CFUs) was 15(12)/15(12) μg mL^−1 and the MBC ([5]; ≥99.99 % reduction in CFUs) was 15(12)/15(12) μg mL^−1. The MIC ([6]; ≥90 % reduction in CFUs) was 3.9(3.1)/3.9(3.1) μg mL^−1, the MBC ([6]; ≥99.99 % reduction in CFUs) was 3.9(3.1)/3.9(3.1) μg mL^−1 and the MIC ([7]; ≥90 % reduction in CFUs) was 15(12)/15(12) μg mL^−1. The MBC ([7]; ≥99.99 % reduction in CFUs) was 15(12)/15(12) μg mL^−1, the MIC ([8]; ≥90 % reduction in CFUs) was 3.9(3.1)/3.9(3.1) μg mL^−1 and the MBC ([8]; ≥99.99 % reduction in CFUs) was 3.9(3.1)/3.9(3.1) μg mL^−1. For the same compound, the MIC ([9]; ≥90 % reduction in CFUs) was 3.9(3.1)/3.9(3.1) μg mL^−1, the “MBC (minimum fungicidal concentration)” value ([9]; ≥99.99 % reduction in CFUs) was 3.9(3.1)/3.9(3.1) μg mL^−1 and the MIC ([10]; ≥90 % reduction in CFUs) was 3.9(3.1)/3.9(3.1) μg mL^−1. For the same compound, the MBC ([10]; ≥99.99 % reduction in CFUs) was 3.9(3.1)/3.9(3.1) μg mL^−1, the MIC ([11]; ≥90 % reduction in CFUs) was 7.8 µg/mL (≈ 6.27 µM) and the MBC ([11]; ≥99.99 % reduction in CFUs) was 15 µg/mL (≈ 12.1 µM). The MIC ([12]; ≥90 % reduction in CFUs) was 15 µg/mL (≈ 12.1 µM), the MBC ([12]; ≥99.99 % reduction in CFUs) was 31 µg/mL (≈ 24.9 µM) and the “Geometric mean of MIC” value (tested bacteria) was 5 µM. The MIC ([13]; ≥90 % reduction in CFUs) was 7.8(6.3)/7.8(6.3) μg mL^−1, the MBC ([13]; ≥99.99 % reduction in CFUs) was 7.8(6.3)/7.8(6.3) μg mL^−1 and the MIC ([14]; ≥90 % reduction in CFUs) was 15 µg/mL (≈ 12.1 µM). The MBC ([14]; ≥99.99 % reduction in CFUs) was 31 µg/mL (≈ 24.9 µM), the MIC ([15]; ≥90 % reduction in CFUs) was 1.9(1.6)/1.9(1.6) μg mL^−1 and the MBC ([15]; ≥99.99 % reduction in CFUs) was 1.9(1.6)/1.9(1.6) μg mL^−1. The MIC ([16]; ≥90 % reduction in CFUs) was 15(12)/1512) μg mL^−1 and the MBC ([16]; ≥99.99 % reduction in CFUs) was 15(12)/1512) μg mL^−1.
